Laboratory results published in US6090780A (Chandon Prasad, priority 1999, dated 2000).

Tests used:
Format in all cases: in vivo
C57BL mice [1] = assay: Voluntary alcohol consumption in alcohol naive mice (two-bottle choice); settings: for % ETHANOL PREFERENCE (mean ± SEM): 7 days
Protocol: Forty adult male C57BL mice were obtained from Jackson Laboratories and housed individually in light controlled rooms for a period of at least ten days after arrival with free access to Purina Chow and water. The lights were cycled on and off every twelve hour period. Mice were divided into four groups of ten. Each room was fitted with two 250 ml bottles having drip proof drinking spouts on both sides of a food bin containing Purina Chow. One bottle contained 6% (V/V) ethanol in water whereas the other bottle contained water. […] The two bottles were frequently exchanged with each other to minimize positional preference. Fluid intake from each bottle was recorded after 7 days.
Ethanol preference was calculated as ethanol intake/(ethanol intake+water intake)×100.

C57BL mice [2] = assay: Voluntary alcohol consumption in alcohol experienced mice (two-bottle choice); settings: for ETHANOL PREFERENCE (%): 7 days
Protocol: Forty adult male C57BL mice were obtained from Jackson Laboratories and housed individually in light controlled rooms for a period of at least ten days prior to beginning the experiment with free access to Purina Chow and water. The lights were cycled on and off every twelve hour period. The mice were divided into four groups of ten. Each room was fitted with two 250 ml bottles having drip proof drinking spouts on both sides of a food bin containing Purina Chow. Both bottles contained 6% (V/V) ethanol in water and were the only source of fluid available. Mice were allowed to drink for seven days. On the eighth day, one bottle containing ethanol in water was removed and replaced with a 250 ml bottle containing water. […] The bottles were frequently exchanged to discourage positional preference. Fluid intake from each bottle was recorded after an additional 7 days. % Ethanol preference was calculated for each group.

Sprague-Dawley rats = assay: Effect of intraperitoneal and oral administration of CHP on food intake; settings: for food intake, mean ± SEM, n = 6: 7 h after 21 h fast; for effect on food consumption: up to 50 mg/Kg of body weight
Protocol: Thirty-six outbred adult male Sprague-Dawley rats, certified virus free, obtained from Hilltop Laboratories, New York, N.Y. were housed in a temperature and light controlled room for a period of at least seven days after arrival. Sprague-Dawley rats are white albino outbred rats. The temperature of the room was maintained at about 20-21° C. The lights in the room were cycled between on and off every twelve hours. The rats were allowed free access to Purina Chow food and water prior to beginning the experiment. For the experiment rats were divided into six groups of six rats each. […] The amount of CHP in each dose was based on the body weight of the individual rat. Rats were fasted for about 21 hours from food but not water. Oral dosages of CHP were administered using a gavage tube according to each rat group. The rats were then given access to Purina Chow and water for the next seven hours. Food intake during the seven hours was measured in grams per rat and averaged for each group. […] At the end of this period, the experiment was repeated using intraperitoneal administration.

[3] = CHP 1 μg/ml fluid in each bottle
[4] = CHP 5 μg/ml fluid in each bottle
[5] = CHP 10 μg/ml fluid in each bottle

Substance: Histidyl-proline diketopiperazine [CHP]
- effect on average daily fluid intake (C57BL mice [1]; ANOVA: F=0.09, p=0.96): did not effect
- alcohol preference after CHP administration (C57BL mice [1]; ANOVA: F=3.73, p=0.019): dose dependence decrease
- AVERAGE FLUID INTAKE (C57BL mice [1]; [3]): 2.9 mL/day
- % ETHANOL PREFERENCE (mean ± SEM) (C57BL mice [1]; [3]): 29 ± 6%
- AVERAGE FLUID INTAKE (C57BL mice [1]; [4]): 2.8 mL/day
- % ETHANOL PREFERENCE (mean ± SEM) (C57BL mice [1]; [4]): 23 ± 6%
- AVERAGE FLUID INTAKE (C57BL mice [1]; [5]): 2.7 mL/day
- % ETHANOL PREFERENCE (mean ± SEM) (C57BL mice [1]; [5]): 15%
- alcohol preference after CHP administration (C57BL mice [2]; ANOVA: F=3.88, p=0.0195): dose dependence decrease
- ETHANOL PREFERENCE (%) (C57BL mice [2]; [3]): 58%
- ETHANOL PREFERENCE (%) (C57BL mice [2]; [4]): 54%
- ETHANOL PREFERENCE (%) (C57BL mice [2]; [5]): 40%
- food intake, mean ± SEM, n = 6 (Sprague-Dawley rats; intraperitoneal, 1 mg/kg of body weight): 17.6 ± 3.6 g/rat
- food intake, mean ± SEM, n = 6 (Sprague-Dawley rats; intraperitoneal, 5 mg/kg of body weight): 14.2 ± 0.7 g/rat
- food intake, mean ± SEM, n = 6 (Sprague-Dawley rats; intraperitoneal, 10 mg/kg of body weight): 14.1 ± 2.9 g/rat
- food intake, mean ± SEM, n = 6 (Sprague-Dawley rats; intraperitoneal, 20 mg/kg of body weight): 14.4 ± 1.0 g/rat
- food intake, mean ± SEM, n = 6 (Sprague-Dawley rats; intraperitoneal, 50 mg/kg of body weight): 14.7 ± 1.2 g/rat
- effect on food consumption (Sprague-Dawley rats; intraperitoneal, ANOVA F=1.86, p=0.13): no significant effect
- food intake, mean ± SEM, n = 6 (Sprague-Dawley rats; oral, 1 mg/kg of body weight): 14.3 ± 2.2 g/rat
- food intake, mean ± SEM, n = 6 (Sprague-Dawley rats; oral, 5 mg/kg of body weight): 14.7 ± 1.2 g/rat
- food intake, mean ± SEM, n = 6 (Sprague-Dawley rats; oral, 10 mg/kg of body weight): 13.1 ± 2.1 g/rat
- food intake, mean ± SEM, n = 6 (Sprague-Dawley rats; oral, 20 mg/kg of body weight): 15.1 ± 2.3 g/rat
- food intake, mean ± SEM, n = 6 (Sprague-Dawley rats; oral, 50 mg/kg of body weight): 15.7 ± 1.7 g/rat
- effect on food consumption (Sprague-Dawley rats; oral, ANOVA F=0.92): no significant effect
